{"source": "patent US20230277612A1", "about": "“SAPONIN DERIVATIVES FOR USE IN MEDICINE” (priority 2020, published 2023)", "key": {"[1]": {"system": "HeLa cells", "test": "cells", "type": "cell-based", "procedure": "(§1) (FIGS. 66a and 66B). Next toxicity was determined, for this the modified saponins were titrated on HeLa and A431 cells. […] Next toxicity was determined, for this the modified saponins were titrated on HeLa and A431 cells."}, "[2]": {"test": "Critical micellar concentration (CMC) by ANS fluorescence", "type": "physicochemical", "conditions": "for CMC value: PBS", "summary_of_the_method": "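Saponin solutions (dry-weight concentrations 1–1400 μM) in purified water or Dulbecco's PBS+/+ were mixed with ANS, 75.86 μM, 6 μg per sample. ANS fluorescence was read at 355 nm excitation and 460 nm emission. CMC was taken from the rise in ANS fluorescence yield as the dye partitions into micelles.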"}, "[3]": {"system": "HeLa cells", "test": "Pilot cell-based bioassay: 10 μg/ml saponin with or without 1.5 pM dianthin-EGF, 72 h, relative cell viability", "set-up": "key to Cell killing activity (+ or −): Cell killing activity (+ or −); Cell killing activity (+ or −)", "conditions": "for Cell viability after 72 h: 10 microgram/ml saponin + […] dianthin-EGF, HeLa cells", "procedure": "HeLa cells were incubated for 72 h with the following constructs and cell viability before and after the 72 h-incubation was assessed. In the experiments, cells were exposed to 1.5 pM dianthin-EGF conjugate. A negative control were cells incubated with buffer vehicle and 10 microgram/ml saponin, without dianthin-EGF. Cell viability was set to 100% for the control in which both saponin and EGF-dianthin were omitted. […] Cell viability after 72 h was essentially 0%. For the chemically modified saponin variants, 10 microgram/ml saponin was tested in combination with 1.5 pM dianthin-EGF."}, "[4]": {"system": "EGFR expressing cells (A431)", "test": "Saponin titration on fixed 10 pM cetuximab-saporin, cell viability (MTS)", "type": "cell-based", "conditions": "without cetuximab-saporin"}, "[5]": {"system": "EGFR expressing cells (A431)", "test": "Saponin titration on fixed 10 pM EGFdianthin, cell viability (MTS)", "type": "cell-based", "conditions": "without EGFdianthin"}, "[6]": {"system": "HeLa (EGFR+) cells", "test": "Saponin titration in presence and absence of […] EGFdianthin, cell viability", "type": "cell-based", "procedure": "To extend this test, saponins from other sources were analyzed. A saponin purified from a root extract of Gypsophila elegans M.Bieb. […] FIG. 63C)."}, "[7]": {"system": "A431 (EGFR++) cells", "test": "Saponin derivative titration in presence and absence of […] EGFdianthin, cell viability", "type": "cell-based"}, "[8]": {"system": "A2058 (EGFR−) cells", "test": "Saponin derivative titration in presence and absence of […] EGFdianthin, cell viability", "type": "cell-based"}, "[9]": {"system": "EGFR expressing cells (HeLa)", "type": "cell-based", "conditions": "HeLa; + 5 pM EGFdianthin; read-out: IC50 endosomal escape enhancing activity"}, "[10]": {"system": "A431 cells", "test": "cells", "type": "cell-based", "conditions": "Homo sapiens", "procedure": "as §1"}, "[11]": {"system": "human red blood cells", "test": "cells", "type": "cell-based", "conditions": "Homo sapiens, Erythrocyte", "procedure": "Red blood cells (RBCs) were isolated from a buffy coat using a Ficoll gradient. The obtained RBC pellet (˜4-5 ml) was washed 2× with 50 ml DPBS (without Ca^2+/Mg^2+, PAN-Biotech GmbH). Cells were pelleted by centrifugation for 10 min, 800×g at RT. RBC were counted and resuspended at 500.000.000 c/ml in DPBS (without Ca^2+/Mg^2+), based on total cell count.\nSaponin dilutions were prepared in DPBS (with Ca^2+/Mg^2+, PAN-Biotech GmbH), at 1.11× final strength. For positive lysis control a 0.02% Triton-X100 solution was prepared in DPBS^+/+. Of all compound solutions 135 μl was dispensed/well in a 96 well V-bottom plate. To this 15 μl RBC suspension was added and mixed shortly (10 sec-600 rpm). The plate was incubated 30 min at RT, with gentle agitation. Afterwards the plate was spun for 10 min at 800×g to pellet the RBC and 100-120 μl supernatant was transferred to a standard 96 wp (96 well-plate).\nSaponin dilutions were prepared in DPBS (with Ca^2+/Mg^2+, PAN-Biotech GmbH), at 1.11× final strength. For positive lysis control a 0.02% Triton-X100 solution was prepared in DPBS+/+. Of all compound solutions 135 μl was dispensed/well in a 96 well V-bottom plate. To this 15 μl RBC suspension was added and mixed shortly (10 sec-600 rpm). The plate was incubated 30 min at RT, with gentle agitation. Afterwards the plate was spun for 10 min at 800×g to pellet the RBC and 100-120 μl supernatant was transferred to a standard 96 wp (96 well-plate)."}, "[12]": {"system": "HSP27 mRNA", "test": "HSP27 mRNA gene silencing analysis in A431 cells", "type": "cell-based", "conditions": "SO1861-Ald-EMCH alone", "description": "(§2) RNA from cells was isolated and analysed according to standard protocols (Biorad). qPCR primers that were used are indicated in Table A10."}, "[13]": {"test": "pH dependent hydrolysis of the hydrazone bond (HCl solution pH 3, MALDI-TOF-MS)", "type": "physicochemical", "conditions": "HCl solution at pH 3"}, "[14]": {"system": "HSP27 mRNA", "test": "HSP27 mRNA gene silencing analysis in SK-BR-3 cells", "type": "cell-based", "conditions": "in the presence of 4000 nM or 4829 nM SO1861-Ald-EMCH; read-out: IC50(SK-BR3) HSP27 gene silencing", "description": "as §2"}, "[15]": {"conditions": "10 μg/ml SO1861 or SO1861-derivative + […] EGFdianthin"}, "[16]": {"conditions": "10 μg/ml SO1861 or SO1861-derivative alone"}}, "note": "Like-named read-outs stand apart in the source and are kept apart here. [BNA] = bridged nucleic acid sugar (2',4'-BNA), type not further given; d = 2'-deoxy (DNA)", "data": [{"molecule": "CC(=O)OC1C(C)OC(OC2C(C)OC(OC(=O)[C@]34CCC(C)(C)CC3C3=CCC5[C@@]6(C)CC[C@H](OC7OC(C(=O)O)C(O)C(OC8OCC(O)C(O)C8O)C7OC7OC(CO)C(O)C(O)C7O)[C@@](C)(C=O)C6CC[C@@]5(C)[C@]3(C)C[C@H]4O)C(OC3OC(C)C(OC4OCC(O)C(OC5OC(CO)C(O)C(O)C5O)C4O)C(O)C3O)C2O)C(O)C1OC1OCC(O)C(O)C1O", "note": "(stereo partly shown) [SO1861, reference compound]", "values": [{"measurement": "IC50", "setting": "[1]; saponin alone, read-out: IC50 toxicity", "value": 1000, "unit": "nM"}, {"measurement": "CMC value", "setting": "[2]", "value": 185, "unit": "µM"}, {"measurement": "CMC", "setting": "[2]; Table A7, determined in PBS", "value": "185 ± 19", "unit": "µM"}, {"measurement": "Cell killing activity (+ or −)", "setting": "[3]; [15]", "value": "+"}, {"measurement": "Cell killing activity (+ or −)", "setting": "[3]; [16]", "value": "−"}, {"measurement": "Cell viability after 72 h", "setting": "[3]", "value": "~0", "unit": "%"}, {"measurement": "Cell killing activity of saponin alone", "setting": "[4]", "value": "no cell killing activity"}, {"measurement": "Cell killing activity of saponin alone", "setting": "[5]", "value": "no cell killing activity"}, {"measurement": "General toxicity (IC50 / highest concentration)", "setting": "[6]; in absence of EGFdianthin", "value": "strong cell viability reduction"}, {"measurement": "Toxicity as single compound", "setting": "[7]; A431, without EGFdianthin", "value": "strong cell viability reduction"}, {"measurement": "Toxicity as single compound", "setting": "[8]; without EGFdianthin", "value": "strong cell viability reduction"}]}, {"molecule": "CC(=O)OC1C(C)OC(OC2C(C)OC(OC(=O)[C@]34CCC(C)(C)CC3C3=CCC5[C@@]6(C)CC[C@H](OC7OC(C(=O)O)C(O)C(OC8OCC(O)C(O)C8O)C7OC7OC(CO)C(O)C(O)C7O)[C@@](C)(/C=N/NC(=O)CCCCCN7C(=O)C=CC7=O)C6CC[C@@]5(C)[C@]3(C)C[C@H]4O)C(OC3OC(C)C(OC4OCC(O)C(OC5OC(CO)C(O)C(O)C5O)C4O)C(O)C3O)C2O)C(O)C1OC1OCC(O)C(O)C1O", "note": "(stereo partly shown) [SO1861-Ald-EMCH]", "values": [{"measurement": "IC50", "setting": "[9]", "value": 2, "unit": "µM"}, {"measurement": "IC50", "setting": "[10]; A-431, Table A6, saponin alone, read-out: IC50 nM (Toxicity)", "value": 30000, "unit": "nM"}, {"measurement": "IC50", "setting": "[10]; A-431, text, saponin alone, read-out: IC50 toxicity", "value": 30000, "unit": "nM"}, {"measurement": "IC50", "setting": "[1]; Homo sapiens, HeLa, Table A5, saponin alone, read-out: IC50 nM (Toxicity)", "value": "> 100000", "unit": "nM"}, {"measurement": "IC50", "setting": "[1]; Homo sapiens, HeLa, saponin alone, read-out: IC50 toxicity", "value": "> 100000", "unit": "nM"}, {"measurement": "IC50", "setting": "[11]; Table A5, read-out: IC50 nM (hemolysis)", "value": "> 1e+06", "unit": "nM"}, {"measurement": "IC50", "setting": "[11]; Table A6, read-out: IC50 nM (hemolysis)", "value": "> 1e+06", "unit": "nM"}, {"measurement": "IC50", "setting": "[11]; read-out: IC50 hemolytic activity", "value": "> 1e+06", "unit": "nM"}, {"measurement": "CMC value", "setting": "[2]", "value": "> 800", "unit": "µM"}, {"measurement": "Cell killing activity (+ or −)", "setting": "[3]; [15]", "value": "+"}, {"measurement": "Cell killing activity (+ or −)", "setting": "[3]; [16]", "value": "−"}, {"measurement": "Cell viability after 72 h", "setting": "[3]", "value": "reduced cell viability"}, {"measurement": "Cell killing activity of saponin alone", "setting": "[4]", "value": "no cell killing activity"}, {"measurement": "Cell killing activity of saponin alone", "setting": "[5]", "value": "no cell killing activity"}, {"measurement": "HSP27 gene silencing activity alone", "setting": "[12]", "value": "no HSP27 gene silencing activity"}, {"measurement": "IC50", "setting": "[6]; Homo sapiens, read-out: General toxicity (IC50 / highest concentration)", "value": "> 25", "unit": "µM"}, {"measurement": "IC50", "setting": "[7]; Homo sapiens, A-431, read-out: Toxicity as single compound", "value": "> 25", "unit": "µM"}, {"measurement": "IC50", "setting": "[8]; Homo sapiens, read-out: Toxicity as single compound", "value": "> 25", "unit": "µM"}, {"measurement": "Hydrolysis of the hydrazone bond", "setting": "[13]", "value": "gets cleaved"}]}, {"molecule": "HSP27BNA: antisense BNA oligo against HSP27 mRNA, 5′-GGCacagccagtgGCG-3′ (antisense GGCACAGCCAGTGGCG; sugars from the 5' end [BNA]3 d10 [BNA]3, backbone and methylation of C not given here)", "values": [{"measurement": "IC50", "setting": "[14]", "value": 0.002, "unit": "µM"}]}]}
